Results taken from patent US9012443B2 (Amgen Inc., priority 2011, dated 2015).
Where two headings read alike, the source gives them in different places.

Molecular target: Nav 1.7 (Homo sapiens (Human), UniProt Q15858)
Assay: Nav 1.7 IWQ in vitro assay (IonWorks Quattro population patch-clamp)
Type: cell-based
Settings: for IC50: 293 cells stably transfected with Nav 1.7
Procedure: Nav 1.7 or Nav 1.5 IWQ In Vitro Assay
293 Cells stably transfected with either Nav 1.7 or Nav 1.5 were recorded in population patch-clamp mode with the IonWorks® Quattro automated electrophysiology system in accordance with the manufacturer's specifications (Molecular Devices, LLC, Sunnyvale, Calif.). Sodium channel currents were measured in response to a train of depolarizations that induced successively greater inactivation.
Cells were then left unclamped for a period of 3 to 8 minutes while a single concentration of test compound was added. Cells were then reclamped and put through the same voltage protocol. Current at the end of the 26th pulse to −20 mV was subtracted from the peak current evoked by the 26th pulse to −20 mV to correct for leak current. Percent block was calculated for each concentration in duplicate, and IC50 curves were fitted to percent block as a function of concentration.

[1] = first part of table, read-out: Nav 1.7 IWQ IC50
[2] = second part of table, read-out: Nav1.7 IWQ IC50 IP

Chain of Nav 1.7 (Q15858 whole entry): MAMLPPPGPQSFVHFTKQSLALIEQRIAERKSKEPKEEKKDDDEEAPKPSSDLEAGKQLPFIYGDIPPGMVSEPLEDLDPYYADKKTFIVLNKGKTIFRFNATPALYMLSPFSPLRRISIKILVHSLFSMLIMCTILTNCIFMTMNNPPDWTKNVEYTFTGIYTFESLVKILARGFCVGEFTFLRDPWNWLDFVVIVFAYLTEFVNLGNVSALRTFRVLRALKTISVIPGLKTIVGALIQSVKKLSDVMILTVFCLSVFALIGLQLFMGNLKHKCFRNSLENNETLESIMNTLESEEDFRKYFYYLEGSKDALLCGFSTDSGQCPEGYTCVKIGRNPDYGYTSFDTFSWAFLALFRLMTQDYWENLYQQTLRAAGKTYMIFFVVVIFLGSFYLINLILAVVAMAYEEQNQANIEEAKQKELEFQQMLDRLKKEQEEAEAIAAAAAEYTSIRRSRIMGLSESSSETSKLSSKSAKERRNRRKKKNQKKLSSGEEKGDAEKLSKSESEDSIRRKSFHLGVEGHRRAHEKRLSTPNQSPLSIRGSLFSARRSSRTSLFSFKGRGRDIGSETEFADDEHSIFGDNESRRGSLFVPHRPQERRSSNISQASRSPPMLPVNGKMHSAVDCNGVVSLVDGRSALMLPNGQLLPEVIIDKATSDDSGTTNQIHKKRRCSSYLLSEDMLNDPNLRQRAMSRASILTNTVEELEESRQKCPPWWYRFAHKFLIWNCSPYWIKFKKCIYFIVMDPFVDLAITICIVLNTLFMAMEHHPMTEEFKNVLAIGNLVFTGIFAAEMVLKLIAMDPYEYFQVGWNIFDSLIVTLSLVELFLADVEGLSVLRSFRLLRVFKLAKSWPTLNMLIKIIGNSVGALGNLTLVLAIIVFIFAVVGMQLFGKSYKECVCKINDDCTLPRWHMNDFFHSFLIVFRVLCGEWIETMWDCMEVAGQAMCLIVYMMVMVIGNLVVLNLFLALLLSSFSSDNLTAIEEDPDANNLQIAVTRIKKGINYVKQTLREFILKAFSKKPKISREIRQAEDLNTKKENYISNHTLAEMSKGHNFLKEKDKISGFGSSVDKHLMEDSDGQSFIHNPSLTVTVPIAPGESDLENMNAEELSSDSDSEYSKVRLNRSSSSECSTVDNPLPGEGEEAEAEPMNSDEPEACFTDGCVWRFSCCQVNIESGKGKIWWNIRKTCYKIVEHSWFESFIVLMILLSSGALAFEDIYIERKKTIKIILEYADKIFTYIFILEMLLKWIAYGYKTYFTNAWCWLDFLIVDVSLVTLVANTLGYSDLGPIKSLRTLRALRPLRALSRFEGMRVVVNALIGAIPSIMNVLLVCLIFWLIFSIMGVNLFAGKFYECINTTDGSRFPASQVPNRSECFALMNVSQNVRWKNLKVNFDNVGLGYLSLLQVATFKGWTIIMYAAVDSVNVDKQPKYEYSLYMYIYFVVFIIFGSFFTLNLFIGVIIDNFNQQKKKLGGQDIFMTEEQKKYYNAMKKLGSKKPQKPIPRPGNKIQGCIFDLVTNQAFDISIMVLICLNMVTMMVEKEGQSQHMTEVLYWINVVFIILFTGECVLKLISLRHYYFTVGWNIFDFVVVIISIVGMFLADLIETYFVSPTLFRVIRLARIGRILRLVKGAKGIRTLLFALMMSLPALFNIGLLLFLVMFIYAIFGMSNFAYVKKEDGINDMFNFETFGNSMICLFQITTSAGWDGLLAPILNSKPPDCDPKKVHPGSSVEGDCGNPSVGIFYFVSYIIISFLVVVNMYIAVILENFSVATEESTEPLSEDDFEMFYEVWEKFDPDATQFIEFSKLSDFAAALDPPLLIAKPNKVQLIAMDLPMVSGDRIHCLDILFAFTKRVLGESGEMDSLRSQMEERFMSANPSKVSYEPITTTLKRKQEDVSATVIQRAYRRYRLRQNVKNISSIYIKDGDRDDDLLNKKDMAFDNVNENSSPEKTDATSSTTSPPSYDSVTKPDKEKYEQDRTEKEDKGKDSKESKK

| Compound | IC50 [1] [nM] | IC50 [2] [nM] | Nav1.7 Single Point Data IWQ (at […]) (%) |
| --- | --- | --- | --- |
| O=S(=O)(Nc1nccs1)c1ccc2c(-c3ccc(C(F)(F)F)cc3-c3ccncc3)nccc2c1 [Example 71, 1-(2-(PYRIDIN-4-YL)-4-(TRIFLUOROMETHYL)PHENYL)-N-(THIAZOL-2-YL)ISOQUINOLINE-6-SULFONAMIDE] | 20 | – | – |
| O=S(=O)(Nc1nccs1)c1ccc2c(-c3ccc(C(F)(F)F)cc3C3=CCNCC3)cccc2c1 [Example 77] | 70 | – | – |
| O=S(=O)(Nc1ccncn1)c1ccc2c(OCC(F)(F)C3CCOCC3)nccc2c1 [Example 299, 1-(2,2-DIFLUORO-2-(TETRAHYDRO-2H-PYRAN-4-YL)ETHOXY)-N-(PYRIMIDIN-4-YL)ISOQUINOLINE-6-SULFONAMIDE] | – | > 10000 | 49 |
| Cn1ccnc1-c1nccc2cc(S(=O)(=O)Nc3nccs3)ccc12 [Example 315, 1-(1-METHYL-1H-IMIDAZOL-2-YL)-N-(THIAZOL-2-YL)ISOQUINOLINE-6-SULFONAMIDE 2,2,2-TRIFLUOROACETATE] | – | > 10000 | 37 |
| O=S(=O)(Nc1ncns1)c1ccc2c(-c3ccc(C(F)(F)F)c(Cl)c3)nccc2c1 [Example 57, 1-(3-CHLORO-4-(TRIFLUOROMETHYL)PHENYL)-N-(1,2,4-THIADIAZOL-5-YL)ISOQUINOLINE-6-SULFONAMIDE] | 220 | – | – |
| COc1ccncc1-c1nccc2cc(S(=O)(=O)Nc3ccncn3)ccc12 [Example 170, 1-(4-METHOXYPYRIDIN-3-YL)-N-(PYRIMIDIN-4-YL)ISOQUINOLINE-6-SULFONAMIDE] | – | 2650 | – |
| O=S(=O)(Nc1ccncn1)c1ccc2c(OCc3ccc(-n4ccnc4)cc3)nccc2c1 [Example 301, 1-((4-(1H-IMIDAZOL-1-YL)BENZYL)OXY)-N-(PYRIMIDIN-4-YL)ISOQUINOLINE-6-SULFONAMIDE] | – | > 10000 | 40 |
| O=S(=O)(Nc1ncns1)c1ccc2c(-c3ccc(C(F)(F)F)cc3-c3cn[nH]c3)cccc2c1 [Example 21] | 20 | – | – |
| COc1cc(Cl)ccc1-c1cccc2cc(S(=O)(=O)Nc3ncco3)ccc12 [Example 45] | 225 | – | – |
| O=S(=O)(Nc1nccs1)c1ccc2c(N3CCCCC3c3cccnc3)ncnc2c1 (stereo not shown) [Example 536, 4-(2-(PYRIDIN-3-YL)PIPERIDIN-1-YL)-N-(THIAZOL-2-YL)QUINAZOLINE-7-SULFONAMIDE] | – | – | 28.3 |
| COc1cc(-c2cnn(C)c2)ccc1-c1nccc2cc(S(=O)(=O)Nc3ccncn3)ccc12 [Example 454, 1-(2-METHOXY-4-(1-METHYL-1H-PYRAZOL-4-YL)PHENYL)-N-(PYRIMIDIN-4-YL)ISOQUINOLINE-6-SULFONAMIDE] | – | – | <20 |
| COc1cc(C(F)(F)F)ccc1-c1nccc2cc(S(=O)(=O)NC(C)=O)ccc12 [Example 314, N-((1-(2-METHOXY-4-(TRIFLUOROMETHYL)PHENYL)ISOQUINOLIN-6-YL)SULFONYL)ACETAMIDE] | – | > 10000 | 39 |
| Cc1ccc2c(cnn2C)c1-c1nccc2cc(S(=O)(=O)Nc3ccncn3)ccc12 [Example 309] | – | > 10000 | 27 |
| O=S(=O)(Nc1ccncn1)c1ccc2c(-c3ccc(C(F)(F)F)cc3-c3ccncc3)nccc2c1 [Example 65, 1-(2-(PYRIDIN-4-YL)-4-(TRIFLUOROMETHYL)PHENYL)-N-(PYRIMIDIN-4-YL)ISOQUINOLINE-6-SULFONAMIDE] | 320 | – | – |
| O=S(=O)(Nc1ccncn1)c1ccc2c(-c3ccc(N4CCCCC4)c(F)c3F)nccc2c1 [Example 432, 1-(2,3-DIFLUORO-4-(PIPERIDIN-1-YL)PHENYL)-N-(PYRIMIDIN-4-YL)ISOQUINOLINE-6-SULFONAMIDE] | – | – | 34.6 |
| COc1cc(C(F)(F)F)ccc1-c1cccc2cc(S(=O)(=O)Nc3ccncn3)ccc12 [Example 42] | 50 | – | – |
| COc1c(-c2nccc3cc(S(=O)(=O)Nc4ccncn4)ccc23)cccc1C(F)(F)F [Example 152, 1-(2-METHOXY-3-(TRIFLUOROMETHYL)PHENYL)-N-(PYRIMIDIN-4-YL)ISOQUINOLINE-6-SULFONAMIDE] | – | 6810 | – |
| O=S(=O)(Nc1ccncn1)c1ccc2c(-c3ccc(C(F)(F)F)cc3C3=CCNCC3)cccc2c1 [Example 48] | 30 | – | – |
| O=S(=O)(Nc1ccncn1)c1ccc2c(-c3cccc4cccnc34)nccc2c1 [Example 310, N-(PYRIMIDIN-4-YL)-1-(QUINOLIN-8-YL)ISOQUINOLINE-6-SULFONAMIDE] | – | > 10000 | 46 |
| Cn1nccc1-c1cc(C(F)(F)F)ccc1-c1cccc2cc(S(=O)(=O)Nc3ccncn3)ccc12 [Example 74] | 80 | – | – |
| N#Cc1cccc2cc(S(=O)(=O)Nc3ncns3)ccc12 [Example 317] | – | > 10000 | 30 |
| COc1cc(OC)c(-c2nccc3cc(S(=O)(=O)Nc4ncns4)ccc23)c(OC)c1 [Example 60, N-(1,2,4-THIADIAZOL-5-YL)-1-(2,4,6-TRIMETHOXYPHENYL)ISOQUINOLINE-6-SULFONAMIDE] | 1560 | – | – |
| COc1cc(C(F)(F)F)ccc1-c1cccc2cc(S(=O)(=O)Nc3nccs3)ccc12 [Example 41] | 290 | – | – |

| Compound | IC50 [1] [nM] | IC50 [2] [nM] | Nav1.7 Single Point Data IWQ (at […]) (%) |
| --- | --- | --- | --- |
| O=S(=O)(Nc1ccncn1)c1ccc2c(-c3ccc(C(F)(F)F)cc3Br)nccc2c1 [Example 66, 1-(2-BROMO-4-(TRIFLUOROMETHYL)PHENYL)-N-(PYRIMIDIN-4-YL)ISOQUINOLINE-6-SULFONAMIDE] | 120 | – | – |
| Cc1noc(C)c1-c1nccc2cc(S(=O)(=O)Nc3ccncn3)ccc12 [Example 311, 1-(3,5-DIMETHYLISOXAZOL-4-YL)-N-(PYRIMIDIN-4-YL)ISOQUINOLINE-6-SULFONAMIDE] | – | – | 29 |
| N#CC1(COc2nccc3cc(S(=O)(=O)Nc4ccncn4)ccc23)CC1 [Example 135, 1-((1-CYANOCYCLOPROPYL)METHOXY)-N-(PYRIMIDIN-4-YL)ISOQUINOLINE-6-SULFONAMIDE] | – | 3300 | – |
| COc1cc(C(F)(F)F)ccc1-c1c(O)ncc2cc(S(=O)(=O)Nc3nccs3)ccc12 [Example 545, 3-HYDROXY-4-(2-METHOXY-4-(TRIFLUOROMETHYL)PHENYL)-N-(THIAZOL-2-YL)ISOQUINOLINE-7-SULFONAMIDE] | – | – | 23.7 |
| O=S(=O)(Nc1ncns1)c1ccc2c(-c3ccc(Cl)cc3OC(F)F)cccc2c1 [Example 24] | 30 | – | – |
| Cn1ncc2cccc(-c3nccc4cc(S(=O)(=O)Nc5ccncn5)ccc34)c21 [Example 306, 1-(1-METHYL-1H-INDAZOL-7-YL)-N-(PYRIMIDIN-4-YL)ISOQUINOLINE-6-SULFONAMIDE] | – | > 10000 | 35 |
| COC(=O)C1CN(c2cccc3cc(S(=O)(=O)Nc4ncns4)ccc23)CCO1 (stereo not shown) [Example 17, METHYL 4-(6-(N-(1,2,4-THIADIAZOL-5-YL)SULFAMOYL)NAPHTHALEN-1-YL)MORPHOLINE-2-CARBOXYLATE] | 4560 | – | – |
| Cn1nc(C(F)(F)F)cc1-c1nccc2cc(S(=O)(=O)Nc3ccncn3)ccc12 [Example 312, 1-(1-METHYL-3-(TRIFLUOROMETHYL)-1H-PYRAZOL-5-YL)-N-(PYRIMIDIN-4-YL)ISOQUINOLINE-6-SULFONAMIDE] | – | > 10000 | 47 |
| O=S(=O)(Nc1ncns1)c1ccc2c(N3CCCC3c3ccccc3)cccc2c1 (stereo not shown) [Example 83] | 10 | – | – |
| CC1CN(c2cccc3cc(S(=O)(=O)Nc4ncns4)ccc23)CCO1 (stereo not shown) [Example 16] | 2370 | – | – |
| O=C1CCCN1c1cccc2cc(S(=O)(=O)Nc3ncns3)ccc12 [Example 93] | – | 7970 | – |
| O=S(=O)(Nc1ccncn1)c1ccc2c(Oc3ccc(Cl)c(Cl)c3)nccc2c1 [Example 193, 1-(3,4-DICHLOROPHENOXY)-N-(PYRIMIDIN-4-YL)ISOQUINOLINE-6-SULFONAMIDE] | – | 4980 | – |
| O=S(=O)(Nc1ncns1)c1ccc2c(-c3ccc(C(F)(F)F)cc3O)nccc2c1 [Example 58, 1-(2-HYDROXY-4-(TRIFLUOROMETHYL)PHENYL)-N-(1,2,4-THIADIAZOL-5-YL)ISOQUINOLINE-6-SULFONAMIDE] | 600 | – | – |
| CC(C)(O)C1CN(c2cccc3cc(S(=O)(=O)Nc4ncns4)ccc23)CCO1 (stereo not shown) [Example 20] | 3140 | – | – |
| Cc1ccc(-c2cccc3cc(S(=O)(=O)Nc4ncns4)ccc23)c(Cl)c1 [Example 6] | 340 | – | – |
| O=S(=O)(Nc1ccncn1)c1ccc2c(-c3ccc(C(F)(F)F)cc3-c3ccncc3)cccc2c1 [Example 75] | 100 | – | – |
| CN(C)C(=O)C1CN(c2cccc3cc(S(=O)(=O)Nc4ncns4)ccc23)CCO1 (stereo not shown) [Example 19] | 1180 | – | – |
| O=S(=O)(Nc1ccncn1)c1ccc2c(-c3cccc4cc[nH]c34)nccc2c1 [Example 434, 1-(1H-INDOL-7-YL)-N-(PYRIMIDIN-4-YL)ISOQUINOLINE-6-SULFONAMIDE] | – | – | 20.0 |
| O=S(=O)(Nc1ccncn1)c1ccc2c(C3CCCN3C3CCOCC3)nccc2c1 (stereo not shown) [Example 316, N-(PYRIMIDIN-4-YL)-1-(1-(TETRAHYDRO-2H-PYRAN-4-YL)PYRROLIDIN-2-YL)ISOQUINOLINE-6-SULFONAMIDE 2,2,2-TRIFLUOROACETATE] | – | > 10000 | 26 |
| COc1ccc(-c2nccc3cc(S(=O)(=O)Nc4ncns4)ccc23)c(OC)c1 [Example 59, 1-(2,4-DIMETHOXYPHENYL)-N-(1,2,4-THIADIAZOL-5-YL)ISOQUINOLINE-6-SULFONAMIDE] | 60 | – | – |
| O=S(=O)(Nc1ncns1)c1ccc2c(-c3ccc(Cl)cc3)nccc2c1 [Example 64, 1-(4-CHLOROPHENYL)-N-(1,2,4-THIADIAZOL-5-YL)ISOQUINOLINE-6-SULFONAMIDE] | 770 | – | – |
| CN1CC=C(c2cc(C(F)(F)F)ccc2-c2cccc3cc(S(=O)(=O)Nc4ccncn4)ccc23)CC1 [Example 76] | 70 | – | – |
